Patent publication US20260200928A1, “THERAPEUTIC COMPOUNDS” (Sanofi, priority 2022, published 2026)

Molecular target: T1, human IL-17A (Homo sapiens, UniProt Q16552)
T1 construct: purchased R&D Systems 7955-IL/CF
T1 sequence (Q16552 24-155): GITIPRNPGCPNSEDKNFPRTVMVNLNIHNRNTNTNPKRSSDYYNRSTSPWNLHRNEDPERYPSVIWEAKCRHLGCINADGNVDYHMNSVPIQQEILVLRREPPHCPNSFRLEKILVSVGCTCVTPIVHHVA
Experiment: IL-17A AlphaLISA competition assay (block of IL-17A binding to its receptor IL-17RA)
Conditions: mean IC50 (n≥2), block of IL-17A binding to IL-17RA
In short: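 Bead-based AlphaLISA competition in PBS with 0.05% Tween-20 and 0.1% BSA: compound first meets human IL-17A (7.5 nM stock) for 30 min, then IL-17RA/Fc (5 nM stock) for 90 min, all at room temperature, before acceptor/donor bead capture. IC50 fitted 4-parameter, DMSO and 4 μM reference inhibitor as controls; at least duplicate.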

IC50 [nM] | SMILES
99 | Cn1nccc1C(=O)N[C@H](C(=O)Nc1cc(CN2C[C@@H](C(F)(F)F)NC2=O)ccn1)[C@H]1CC[C@@H](C)CC1 [Example 264, 1-Methyl-N—((S)-1-((1s,4R)-4-methylcyclohexyl)-2-oxo-2-((4-(((S)-2-oxo-4-(trifluoromethyl)imidazolidin-1-yl)methyl)pyridin-2-yl)amino)ethyl)-1H-pyrazole-5-carboxamide]
171 | CC(C)n1nccc1C(=O)N[C@H](C(=O)Nc1cc(C(NC(=O)CCC(F)(F)F)C2CC2)ccn1)C(C1CC1)C1CC1 (single isomer, unassigned) [Example 43]
809 | C[C@H]1CC[C@H]([C@H](NC(=O)C2(F)CC2)C(=O)Nc2cc(CN3C[C@@H](C(F)(F)F)NC3=O)ccn2)CC1 [Example 67, 1-fluoro-N-((S)-1-((1r,4S)-4-methylcyclohexyl)-2-oxo-2-((4-(((S)-2-oxo-4-(trifluoromethyl)imidazolidin-1-yl)methyl)pyridin-2-yl)amino)ethyl)cyclopropane-1-carboxamide]
42 | COC[C@H](c1ccnc(NC(=O)[C@@H](NC(=O)c2nonc2C)C(C2CC2)C2CC2)c1)N1C[C@@H](C(F)(F)F)NC1=O [Example 226, N—((S)-1,1-Dicyclopropyl-3-((4-((S)-2-methoxy-1-((S)-2-oxo-4-(trifluoro-methyl)imidazolidin-1-yl)ethyl)pyridin-2-yl)amino)-3-oxopropan-2-yl)-4-methyl-1,2,5-oxadiazole-3-carboxamide]
90 | C[C@H]1CC[C@@H]([C@H](NC(=O)c2nonc2C2CC2)C(=O)Nc2cc(CN3C[C@@H](C(F)(F)F)NC3=O)ccn2)CC1 [Example 263, 4-Cyclopropyl-N—((S)-1-((1s,4R)-4-methylcyclohexyl)-2-oxo-2-((4-(((S)-2-oxo-4-(trifluoromethyl)imidazolidin-1-yl)methyl)pyridin-2-yl)amino)ethyl)-1,2,5-oxadiazole-3-carboxamide]
96 | CCn1nccc1C(=O)NC(C(=O)Nc1cc(C[C@H]2C[C@@H](C(F)(F)F)NC2=O)ccn1)C(C1CC1)C1CC1 (stereo in doubt) [Example 230, N—((S)-1,1-dicyclopropyl-3-oxo-3-((4-(((3S,5S)-2-oxo-5-(trifluoromethyl)-pyrrolidin-3-yl)methyl)pyridin-2-yl)amino)propan-2-yl)-1-ethyl-1H-pyrazole-5-carboxamide]
821 | CCn1nccc1C(=O)N[C@H](C(=O)Nc1cc(O[C@H]2C[C@@H](C(F)(F)F)NC2=O)ccn1)[C@H]1CC[C@H](C)CC1 [Example 322, 1-ethyl-N—((S)-1-((1r,4S)-4-methylcyclohexyl)-2-oxo-2-((4-(((3S,5S)-2-oxo-5-(trifluoromethyl)pyrrolidin-3-yl)oxy)pyridin-2-yl)amino)ethyl)-1H-pyrazole-5-carboxamide]
70 | COC[C@H](c1ccnc(NC(=O)[C@@H](NC(=O)c2ccnn2C)C2CCC(F)(F)CC2)c1)N1C[C@@H](C(F)(F)F)NC1=O [Example 202, N-((S)-1-(4,4-difluorocyclohexyl)-2-((4-((S)-2-methoxy-1-((S)-2-oxo-4-(trifluoromethyl)imidazolidin-1-yl)ethyl)pyridin-2-yl)amino)-2-oxoethyl)-1-methyl-1H-pyrazole-5-carboxamide]

Further lines, the molecule ahead of its results:

SMILES | IC50 [nM]
Cc1nonc1C(=O)N[C@H](C(=O)Nc1cc([C@@H](C)N2C[C@@H](C(F)(F)F)NC2=O)ccn1)[C@H]1CC[C@H](C)CC1 [Example 237, 4-methyl-N—((S)-1-((1r,4S)-4-methylcyclohexyl)-2-oxo-2-((4-((R)-1-((S)-2-oxo-4-(trifluoromethyl)imidazolidin-1-yl)ethyl)pyridin-2-yl)amino)ethyl)-1,2,5-oxadiazole-3-carboxamide] | 22
COCC(NC(=O)CCC(F)(F)F)c1ccnc(NC(=O)[C@@H](NC(=O)c2ccnn2C2CC2)C2CCC(F)(F)CC2)c1 (single isomer, unassigned) [Example 146] | 4450
Cn1nccc1C(=O)N[C@H](C(=O)Nc1cc([C@H](NC(=O)CCC(F)(F)F)C2CC2)ccn1)C1CCC(F)(F)CC1 [Example 107, N—((S)-2-((4-((R)-cyclopropyl(4,4,4-trifluorobutanamido)methyl)pyridin-2-yl)amino)-1-(4,4-difluorocyclohexyl)-2-oxoethyl)-1-methyl-1H-pyrazole-5-carboxamide] | 177
CC1(C)CN(Cc2ccnc(NC(=O)[C@@H](NC(=O)c3nonc3C3CC3)[C@H]3CC[C@H](C)CC3)c2)C(=O)N1 [Example 25, 4-Cyclopropyl-N—((S)-2-((4-((4,4-dimethyl-2-oxoimidazolidin-1-yl)methyl)pyridin-2-yl)amino)-1-((1r,4S)-4-methylcyclohexyl)-2-oxoethyl)-1,2,5-oxadiazole-3-carboxamide] | 105
CCc1nonc1C(=O)N[C@H](C(=O)Nc1cc([C@@H](COC)N2CC(F)(F)CNC2=O)ccn1)C1CCC(F)(F)CC1 [Example 182, N-((S)-2-((4-((S)-1-(5,5-difluoro-2-oxotetrahydropyrimidin-1(2H)-yl)-2-methoxyethyl)pyridin-2-yl)amino)-1-(4,4-difluorocyclohexyl)-2-oxoethyl)-4-ethyl-1,2,5-oxadiazole-3-carboxamide] | 19
CCc1conc1C(=O)NC(C(=O)Nc1cc([C@@H](CC)N2C[C@@H](C(F)(F)F)NC2=O)ccn1)C1CCC(F)(F)CC1 (stereo in doubt) [Example 208, N—((S)-1-(4,4-difluorocyclohexyl)-2-oxo-2-((4-((R)-1-((S)-2-oxo-4-(trifluoromethyl)imidazolidin-1-yl)propyl)pyridin-2-yl)amino)ethyl)-4-ethylisoxazole-3-carboxamide] | 31
C[C@H]1CC[C@H]([C@H](NC(=O)c2nonc2C2CC2)C(=O)Nc2cc(C(CO)N3C[C@@H](C(F)(F)F)NC3=O)ccn2)CC1 (single isomer, unassigned) [Example 233, 4-Cyclopropyl-N-((1S)-2-((4-((R or S)-2-hydroxy-1-((S)-2-oxo-4-(trifluoro-methyl)imidazolidin-1-yl)ethyl)pyridin-2-yl)amino)-1-((1r,4S)-4-methylcyclohexyl)-2-oxoethyl)-1,2,5-oxadiazole-3-carboxamide] | 9
CC(C)n1nccc1C(=O)N[C@H](C(=O)Nc1cc(C(NC(=O)CCC(F)(F)F)C2CC2)ccn1)C1CCC(F)(F)CC1 (stereo partly drawn) [Example 110, N-((1S)-2-((4-(cyclopropyl(4,4,4-trifluorobutanamido)methyl)pyridin-2-yl)amino)-1-(4,4-difluorocyclohexyl)-2-oxoethyl)-1-isopropyl-1H-pyrazole-5-carboxamide] | 30
CC(C)n1nccc1C(=O)NC(C(=O)Nc1cc(Cc2cccc(=O)n2C)ccn1)C1CCC(F)(F)CC1 (centres unmarked) [Example 35, N-(1-(4,4-difluorocyclohexyl)-2-((4-((1-methyl-6-oxo-1,6-dihydropyridin-2-yl)methyl)pyridin-2-yl)amino)-2-oxoethyl)-1-isopropyl-1H-pyrazole-5-carboxamide] | 23500
CN1C(=O)N(Cc2ccnc(NC(=O)[C@@H](NC(=O)OC(C)(C)C)[C@H]3CC[C@H](C)CC3)c2)CC12CCC2 [Example 23, Tert-butyl ((S)-2-((4-((5-methyl-6-oxo-5,7-diazaspiro[3.4]octan-7-yl)methyl)pyridin-2-yl)amino)-1-((1r,4S)-4-methylcyclohexyl)-2-oxoethyl)carbamate] | 6950
COCC(c1ccnc(NC(=O)[C@@H](NC(=O)c2nonc2C2CC2)C2CCC(F)(F)CC2)c1)[C@H]1C[C@@H](C(F)(F)F)NC1=O (single isomer, unassigned) [Example 185, 4-Cyclopropyl-N-((1S)-1-(4,4-difluorocyclohexyl)-2-((4-((R or S)-2-methoxy-1-((3R,5S)-2-oxo-5-(trifluoromethyl)pyrrolidin-3-yl)ethyl)pyridin-2-yl)amino)-2-oxoethyl)-1,2,5-oxadiazole-3-carboxamide] | 46
CCc1nocc1C(=O)N[C@H](C(=O)Nc1cc([C@@H](COC)N2C[C@@H](C(F)(F)F)NC2=O)ccn1)[C@H]1CCCC(F)(F)C1 (single isomer, unassigned) [Example 307] | 51
Cn1nccc1C(=O)NC(C(=O)Nc1cc(Cc2ccn(C)c(=O)c2)ccn1)C1CCC(F)(F)CC1 (centres unmarked) [Example 54, N-(1-(4,4-difluorocyclohexyl)-2-((4-((1-methyl-2-oxo-1,2-dihydro-pyridin-4-yl)methyl)pyridin-2-yl)amino)-2-oxoethyl)-1-methyl-1H-pyrazole-5-carboxamide] | 4760
C[C@@H](OC(C)(C)C)[C@H](NC(=O)c1nonc1C1CC1)C(=O)Nc1cc(CN2C[C@@H](C(F)(F)F)NC2=O)ccn1 [Example 102, N-((2S,3R)-3-(tert-butoxy)-1-oxo-1-((4-(((S)-2-oxo-4-(trifluoromethyl)-imidazolidin-1-yl)methyl)pyridin-2-yl)amino)butan-2-yl)-4-cyclopropyl-1,2,5-oxadiazole-3-carboxamide] | 356
Cc1nonc1C(=O)N[C@H](C(=O)Nc1cc(CN2C[C@@H](C(F)(F)F)NC2=O)ccn1)[C@@H](C)OC(C)(C)C [Example 128, N-((2S,3R)-3-(tert-butoxy)-1-oxo-1-((4-(((S)-2-oxo-4-(trifluoromethyl)-imidazolidin-1-yl)methyl)-pyridin-2-yl)amino)butan-2-yl)-4-methyl-1,2,5-oxa-diazole-3-carboxamide] | 2350
